Measurements published in patent publication US4835253A, “Specific inhibitors of tissue kallikrein” (The University Hospital, priority 1987, dated 1989).
Where “and” joins values, the source holds several entries; their conditions need not be identical. Equal values may be shown once. Read-outs that look alike come from different tables or passages of the source. One block for each molecule: values may come before it. Ada = not defined here

Assays:
[1] = target: T1, bovine pancreatic trypsin (Bos taurus, UniProt P00760); assay: KI against trypsin with substrate S-2444; format: biochemical; settings: read-out: K1, Trypsin
T1 sequence (P00760 24-246): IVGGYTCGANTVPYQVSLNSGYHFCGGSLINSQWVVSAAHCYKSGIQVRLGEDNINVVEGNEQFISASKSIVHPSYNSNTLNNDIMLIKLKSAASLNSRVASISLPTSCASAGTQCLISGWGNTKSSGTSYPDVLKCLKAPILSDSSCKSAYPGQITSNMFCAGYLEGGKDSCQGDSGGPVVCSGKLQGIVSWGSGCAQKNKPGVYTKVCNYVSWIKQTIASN
Description: (§1) Initially, the inhibitor constant (KI) for each of these novel inhibitor compositions was determined using purified HUK and the tripeptide nitroanilide, S-2266. The ability to inhibit hydrolysis of the S-2266 substrate was performed in 50 mM tris-HCL buffer (pH 9.0) at 37 C. Subsequently, the ability of these novel inhibitors to inhibit human plasma kallikrein and bovine pancreatic trypsin were similarly examined using the specific substrates H-D-Pro-Phe-Arg-p-nitroanilide (S-2302) and Glu-Gly-Arg-p-nitroanilide (S-2444) respectively. The degradation products of each series was purified by HPLC and quantified by liquid scintillation counting as previously described.

[2] = target: T2, rat submaxillary gland kallikrein (Rattus norvegicus, UniProt P00758); assay: Rat femoral artery blood flow response to RSK during and after inhibitor infusion; format: in vivo
T2 sequence (P00758 25-261): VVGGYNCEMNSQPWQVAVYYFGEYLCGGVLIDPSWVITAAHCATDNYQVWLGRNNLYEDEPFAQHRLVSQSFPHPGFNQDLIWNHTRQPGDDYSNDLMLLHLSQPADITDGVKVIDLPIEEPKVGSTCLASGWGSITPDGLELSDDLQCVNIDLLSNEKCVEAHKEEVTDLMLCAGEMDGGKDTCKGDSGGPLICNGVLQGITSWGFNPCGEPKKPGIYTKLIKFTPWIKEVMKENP
Description: (§2) In order to develop a more reproducible, less tachyphylactic system, a rat blood flow model was developed and assessed in male Sprague-Dawley rats. These animals were anesthetized subcutaneously with urethane (1.4 g/kg). Polyethylene PE-10 tubing was inserted into the right femoral artery and femoral vein for intra-arterial and intravenous injections, respectively, the arterial catheter was inserted such that the tip was located immediately proximal to the bifurcation. The rats were tracheostomized and cannulated with PE-200 tubing. A subcutaneous 23 gauge needle was left in the back of the animal for booster injections of urethane (0.35 g/kg every 2.5 hours). A blood flow probe (1.5 mm circumference) was placed on the left femoroal artery and the mean femoral arterial blood flow was monitored with a square-wave electromagnetic flowmeter (Carolina Medical Electronics, model 501). Rat submaxillary gland kallikrein (hereinafter "RSK") or porcine pancreatic kallikrein (hereinafter "PPK") was given intra-arterially, unless otherwise indicated, until a reproducible response was obtained. Each animal was then infused intravenously with KKI-7 inhibitor in DMSO (206 nmole/0.022 ml/min) or with the DMSO vehicle (0.022 ml/min). Bradykinin was also given intra-arterially to determine whether or not the KKI-7 inhibitor effected the blood flow response to bradykinin. The magnitude and duration of the responses to PPK, RSK, and bradykinin were compared before, during, and after the intravenous infusion of KKI-7 or the DMSO vehicle alone. The blood flow increase over the basal blood flow was integrated and expressed as arbitrary units or as the percent change from blood flow increased observed during the control period. The results are provided by FIG. 1 and Table IV below.

bradykinin = assay: Rat femoral artery blood flow response to bradykinin during inhibitor infusion; format: in vivo
Description: as §2, with “Each animal was then infused intravenously with KKI-7 inhibitor in DMSO (206 nmole/0.022 ml/min) or with the DMSO vehicle (0.022 ml/min). Bradykinin was also given intra-arterially to determine whether or not the KKI-7 inhibitor effected the blood flow response to bradykinin. The magnitude and duration of the responses to PPK, RSK, and bradykinin were compared before, during, and after the intravenous infusion of KKI-7 or the DMSO vehicle alone.” left out, “The results are provided by FIG. 1 and Table IV below.” left out

Human urinary kallikrein [3] = target: T3, Human urinary kallikrein (Homo sapiens, UniProt P06870); assay: KM determination: hydrolysis of substrate analogues by HUK (HPLC, scintillation counting); format: biochemical; settings: analysis of the reaction products
T3 construct: Human urinary kallikrein (hereinafter "HUK") was highly purified using a modification of published methods; from tissue; host or cells: human urine
Description: (§3) Human urinary kallikrein (hereinafter "HUK") was highly purified using a modification of published methods that employ ultrafiltration, aprotinin-CH-sepharose affinity chromatography, and Sephadex G-100 gel filtration [ole-MoiYoi et al., Proc. Natl. Acad. Sci. USA 76: 3121-3125 (1979)]. […] The pH of each fraction was determined immediately upon elution, and the fraction was neutralized by addition of 2.0 ml of 2M Tris-HCL buffer (pH 8.0).
KM Determination: Hydrolysis of the substrate analogue inhibitors by HUK was measured by combining the test inhibitor at different concentrations on either side of the KM value with the enzyme at pH 9.0 for thirty minutes at 37 C. The cleavage products were separated from the starting material in the digest by HPLC on a Beckman octadecylsilane (ODS) column (1×25 cm) using a thirty minute gradient of from 0-70% CH3 CN in triethylammonium phosphate buffer (pH 7.0). The starting materials and reaction products were completely resolved under these conditions. Absorbance of the HPLC effluent was monitored at 220 nm. Individual fractions were collected and the amount of peptide degradation products was quantitated by counting in a liquid scintillation counter. Samples containing individual inhibitors were incubated without HUK and solvent blanks were also chromatographed and analyzed in the same way.
For test purposes, in these HUA cleavage studies, individual peptide sequences were synthesized, purified, and characterized as previously described herein. For these cleavage studies, doubly labelled peptides were prepared using [^3 H]-valine and […] respectively. In addition, 6.0N HCL-dioxane was used for removal of tert-butoxycarbonyl protecting groups and 90% hydrogen fluoride/10% anisole (volume/volume) for global deprotection on completion of the synthesis. After extraction and gel filtration on Sephadex G-15, final purification was completed by isocratic elution from a synchrom RP-P column (2.1×25 cm) with CH3 CN--H2 O (8 ml/min). The resultant peptides were deemed to be homogeneous by amino acid analysis; high performance liquid chromatography; thin layer chromatography; and A230 /A260 ratio analysis. […]

[4] = target: porcine pancreatic kallikrein (Sus scrofa, UniProt P00752); assay: Rat femoral artery blood flow response to PPK during and after inhibitor infusion; format: in vivo
Description: as §2

[5] = Mean arterial blood pressure in normotensive, salt-replete rats (infusion or bolus); format: in vivo, rat
Description: Subsequently, a third study utilizing normotensive, salt-replete rats was performed employing an infusion of KKI-7 at a rate of 200 ug of inhibitor per kilogram of rat per minute (200 ug/kg/min). Eight rats each received this infusion for 15 minutes during which the change in mean arterial blood pressure (Torr) was monitored. The results are provided by FIG. 2. In addition, a series of bolus injections were given to conscious, salt-replete, normotensive rats to determine the ED50 dosage necessary to cause a substantive increase in blood pressure. The results are graphically illustrated by FIG. 3 as the log-dose response effect of KKI-7 upon blood pressure.

Human Plasma Kallikrein = Human Plasma Kallikrein (Homo sapiens, UniProt P03952); assay: KI against plasma kallikrein with substrate S-2302; format: biochemical; settings: read-out: K1, Human Plasma Kallikrein
Description: as §1

[6] = Effects of the inhibitor infusion itself in the rat blood flow model; format: in vivo
Description: as §2, with “Each animal was then infused intravenously with KKI-7 inhibitor in DMSO (206 nmole/0.022 ml/min) or with the DMSO vehicle (0.022 ml/min). Bradykinin was also given intra-arterially to determine whether or not the KKI-7 inhibitor effected the blood flow response to bradykinin. The magnitude and duration of the responses to PPK, RSK, and bradykinin were compared before, during, and after the intravenous infusion of KKI-7 or the DMSO vehicle alone.” left out, “The results are provided by FIG. 1 and Table IV below.” left out

Human urinary kallikrein [7] = target: T3, Human urinary kallikrein; assay: KI determination: inhibition of HUK cleavage of chromogenic substrate S-2266; format: biochemical
Description: as §3
KI Determinations: KI measurements were performed using a HP8450A diode array spectrophotometer (Hewlett Packard; Palo Alto, Calif.) attached to a Model 216 computer using the multi-component assay program modified to allow simultaneous determination of reaction velocity in four samples. Dixon plots were used to data reduction and for calculation of […]. […] Inhibition of biologically active kinin from LMW-kininogen was done at pH 7.7 and 37 C.
Procedurally, the KI values for the preliminary analogue inhibitors reported previously [Okunishi et al., Hypertension 7 (Suppl. I): I-72-I-75 (1985)] were determined by adding the chromogenic substrate S-2266 comprising D-Val-Leu-Arg-4-nitroaniline to a mixture of the analogue inhibitor and the HUK.
as §1

Rat urinary kallikrein = target: T4, Rat urinary kallikrein (Rattus norvegicus, UniProt P00758); assay: Blood pressure response to injected rat urinary kallikrein during inhibitor infusion; format: in vivo; settings: infusion 32 nmol/min/animal, anesthetized rats, RUK 203.5 ng
T4 sequence (P00758 25-261): T2 sequence (P00758 25-261)
Description: A series of in-vivo studies were undertaken to determine the effective of the KKI-7 and KKI-8 inhibitors on the blood pressure response to glandular kallikrein. Initially, three female Dahl hypertension-resistant rats (Brookhaven Laboratories, Brookhaven, N.Y.), and four male Sprague-Dewley rats (Charles River, Wilmington, Mass.) were utilized. Each of these animals was anesthetized with Inactin (100 mg/kg ip) and cannulated in a femoral artery with PE-50 polyethylene tubing (Clay Adams, Parsippany, N.J.) which was connected to a Hewlett-Packard model 1280 blood pressure transducer and model 7702B recorder. The right jugular vein was cannulated with PE-10 tubing. The rats were tracheostomized, but respiration was not artificially assisted. Rat urinary kallikrein (hereinafter "RUK") was repeatedly administered via a venous cannula until a reproducable response was obtained. KKI-8 inhibitor was then infused using a Harvard model 901 infusion pump at a rate of 32 nmol/0.022 ml/min. RUK (203.5 ng in 50 ul) was injected during the infusion period. After the infusion was stopped, the reversibility of the inhibition was examined by further injections of RUK. The infusion of KKI-8 (32 nmol/min/animal) inhibited the very gradual and modest decrease in blood pressure otherwise elicited with RUK.

[8] = iv infusion 206 nmole/0.022 ml/min in DMSO
[9] = iv infusion 206 nmole/0.022 ml/min in DMSO, 2 units PPK
[10] = HUK, S-2266, text, read-out: KI values
[11] = S-2266, 50 mM tris-HCL pH 9.0, 37 C, read-out: K1, Human Urinary Kallikrein

T3 sequence (P06870 25-262): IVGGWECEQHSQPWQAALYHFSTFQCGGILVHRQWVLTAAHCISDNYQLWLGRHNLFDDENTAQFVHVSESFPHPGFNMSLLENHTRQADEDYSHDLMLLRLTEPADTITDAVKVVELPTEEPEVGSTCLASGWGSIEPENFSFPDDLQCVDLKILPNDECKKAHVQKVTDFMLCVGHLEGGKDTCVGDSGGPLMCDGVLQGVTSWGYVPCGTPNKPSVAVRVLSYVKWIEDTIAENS
Chain of porcine pancreatic kallikrein (P00752 8-246): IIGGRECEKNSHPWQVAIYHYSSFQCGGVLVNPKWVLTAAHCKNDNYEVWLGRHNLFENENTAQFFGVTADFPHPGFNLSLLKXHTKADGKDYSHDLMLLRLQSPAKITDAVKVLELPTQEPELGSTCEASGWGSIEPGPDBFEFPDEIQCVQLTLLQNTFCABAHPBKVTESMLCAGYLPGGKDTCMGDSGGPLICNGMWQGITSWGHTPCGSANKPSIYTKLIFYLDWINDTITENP
Chain of Human Plasma Kallikrein (P03952 20-638): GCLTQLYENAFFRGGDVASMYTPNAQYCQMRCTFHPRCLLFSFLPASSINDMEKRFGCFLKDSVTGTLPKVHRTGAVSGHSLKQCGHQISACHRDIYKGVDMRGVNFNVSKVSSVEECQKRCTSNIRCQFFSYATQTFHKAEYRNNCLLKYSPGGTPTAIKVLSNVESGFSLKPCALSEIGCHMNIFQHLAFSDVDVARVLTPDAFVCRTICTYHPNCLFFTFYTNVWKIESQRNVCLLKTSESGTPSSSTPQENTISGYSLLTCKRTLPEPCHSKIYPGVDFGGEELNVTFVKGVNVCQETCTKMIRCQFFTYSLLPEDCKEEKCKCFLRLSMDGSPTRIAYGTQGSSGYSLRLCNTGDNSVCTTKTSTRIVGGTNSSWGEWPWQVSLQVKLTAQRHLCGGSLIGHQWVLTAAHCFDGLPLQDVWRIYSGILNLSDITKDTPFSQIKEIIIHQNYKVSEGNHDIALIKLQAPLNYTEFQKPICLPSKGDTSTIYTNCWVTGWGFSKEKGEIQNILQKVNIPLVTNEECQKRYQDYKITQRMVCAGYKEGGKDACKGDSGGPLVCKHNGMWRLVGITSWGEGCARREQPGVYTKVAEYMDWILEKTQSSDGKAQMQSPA

Ki [1]: 12.3 µM
second phase of the response to RSK, of the control value, individual values ([2]; RSK reinjected 10-30 minutes after the infusion was started): 6% and 26%
CHANGE IN BLOOD FLOW (% OF CONTROL), RSK injected, AFTER INFUSION 30-60 min [2, 8]: 35%
CHANGE IN BLOOD FLOW (% OF CONTROL), RSK injected, AFTER INFUSION <10 min [2, 8]: 11%
CHANGE IN BLOOD FLOW (% OF CONTROL), RSK injected, DURING INFUSION 10-30 min [2, 8]: 16%
CHANGE IN BLOOD FLOW (% OF CONTROL), RSK injected, DURING INFUSION <10 min [2, 8]: 52%
response to RSK injections, of the control response, range ([2]; within the first ten minutes after infusion was begun): 49-56%
rate of cleavage by HUK relative to hexapeptides containing proline in the P3 position (Human urinary kallikrein [3]): approximately 15%
response to the injection of PPK ([4]; 2 units of PPK, during and after infusion): reduced
CHANGE IN BLOOD FLOW (% OF CONTROL), PPK injected, AFTER INFUSION 30-60 min [4, 9]: 52%
CHANGE IN BLOOD FLOW (% OF CONTROL), PPK injected, DURING INFUSION 10-30 min [4, 9]: 31%
CHANGE IN BLOOD FLOW (% OF CONTROL), PPK injected, DURING INFUSION <10 min [4, 9]: 38%
Ki (Human Plasma Kallikrein): 244 µM
Ki (Human urinary kallikrein [7]; [10]): 4 µM
Ki (Human urinary kallikrein [7]; [11]): 4 µM
Molecule: CC(C)[C@H](NC(=O)[C@H](CO)NC(=O)[C@H](CCCNC(=N)N)NC(=O)[C@H](Cc1ccccc1)NC(=O)CC1CCCCC1)C(=O)N[C@@H](CCC(N)=O)C(N)=O [KKI-7, Cha-Phe-Arg-Ser-Val-Gln-NH2]
effect on the response to bradykinin (bradykinin; bradykinin injected during the inhibitor infusion): no affect
CHANGE IN BLOOD FLOW (% OF CONTROL), BK injected, DURING INFUSION <10 min (bradykinin; iv infusion 206 nmole/0.022 ml/min in DMSO, 1-2 ng bradykinin): 95%
effect on mean arterial blood pressure ([5]; bolus injection or infusion 200 ug/kg/min for 15 minutes): induces substantial increases
ED50 dose, increase in blood pressure ([5]; bolus injections, conscious, salt-replete, normotensive rats): 0.75 mg/kg
side-effects of infusing ([6]; during the experimental period): No specific side-effects
change in blood flow caused by the infusion itself ([6]; infusion in the DMSO vehicle): moderate, transient increase in blood flow

Ki [1]: 71.8 µM
rate of cleavage by HUK relative to hexapeptides containing proline in the P3 position (Human urinary kallikrein [3]): approximately 15%
Ki (Human Plasma Kallikrein): 358 µM
Ki (Human urinary kallikrein [7]; [10]): 4.2 µM
Ki (Human urinary kallikrein [7]; [11]): 4.2 µM
Molecule: Ada-Phe-Arg-Ser-Val-Gln-NH2 (Ada-FRSVQ-NH2; reading uncertain; also: printed as Ada-Phe-Arg-Ser-Val-Gln-NH2) [KKI-8]
effect on decrease in blood pressure elicited with RUK (Rat urinary kallikrein): inhibited
